Assay results as given in patent US20070043036A1, “2-Pyridone derivatives as neutrophil elastase inhibitors and their use” (priority 2003, published 2007).

Biological target: T1, Human Neutrophil Elastase (HNE) (Homo sapiens, UniProt P08246)
T1 construct: Human Neutrophil Elastase (HNE) purified from serum; purchased Calbiochem 324681; host or cells: natural source; printed as 'purified from serum'
T1 sequence (P08246 30-247 limits assumed): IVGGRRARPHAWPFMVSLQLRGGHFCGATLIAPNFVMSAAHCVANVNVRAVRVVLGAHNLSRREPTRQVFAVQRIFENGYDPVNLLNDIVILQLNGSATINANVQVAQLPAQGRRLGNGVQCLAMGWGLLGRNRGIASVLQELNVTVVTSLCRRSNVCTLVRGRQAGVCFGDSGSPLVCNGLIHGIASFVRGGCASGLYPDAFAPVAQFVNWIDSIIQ
Test: Human Neutrophil Elastase Quenched-FRET Assay
Assay type: biochemical
Conditions: HNE purified from serum; substrate MeOSuc-AAPV-AMC; 15 min pre-incubation, 30 min incubation at room temperature; read-out: Inhibition of Human Neutrophil Elastase IC50
Method: Human Neutrophil Elastase Quenched-FRET Assay
The assay uses Human Neutrophil Elastase (HNE) purified from serum (Calbiochem art. 324681; Ref. Baugh, R. J. et al., 1976, Biochemistry. 15, 836-841). HNE was stored in as 50 mM NaOAc, 200 mM NaCl, pH 5.5 with added 30% glycerol at −20° C. The protease substrate used was Elastase Substrate V Fluorogenic, MeOSuc-AAPV-AMC (Calbiochem art. 324740; Ref. Castillo, M. J. et al., 1979, Anal. Biochem. 99, 53-64). The substrate was stored in DMSO at −20° C. The assay additions were as follows: Test compounds and controls were added to black 96-well flat-bottom plates (Greiner 655076), 1 μL in 100% DMSO, followed by 30 μL HNE in assay buffer with 0.01% TritonX-100. The assay buffer constitution was: 100 mM Tris (pH 7.5) and 500 mM NaCl. The enzyme and the compounds were incubated at room temperature for 15 minutes. Then 30 μl substrate in assay buffer was added. The assay was stopped after 30 minutes incubation at room temperature by adding 60 μl stop solution (140 mM acetic acid, 200 mM sodium monochloroacetate, 60 mM sodium acetate, pH 4.3). Fluorescence was measured on a Wallac 1420 Victor 2 instrument at settings: Excitation 380 nm, Emission 460 nm. IC50 values were determined using Xlfit curve fitting using model 205.

| IC50 [nM] | SMILES |
| --- | --- |
| 51 | Cc1c(CNCC2CC2)cc(C(=O)NCc2ccc(S(C)(=O)=O)cc2)c(=O)n1-c1cccc(C(F)(F)F)c1 [Example 58, 5-{[(Cyclopropylmethyl)amino]methyl}-6-methyl-N-[4-(methylsulfonyl)benzyl]-2-oxo-1-[3-(trifluoromethyl)phenyl]-1,2-dihydropyridine-3-carboxamide] |
| 22 | Cc1c(OCCO)cc(C(=O)NCc2ccc(S(C)(=O)=O)cc2)c(=O)n1-c1cccc(C(F)(F)F)c1 [Example 66, 5-(2-Hydroxyethoxy)-6-methyl-N-[4-(methylsulfonyl)benzyl]-2-oxo-1-[3-(trifluoromethyl)phenyl]-1,2-dihydropyridine-3-carboxamide] |

Second part, the compound before the results:

| SMILES | IC50 [nM] |
| --- | --- |
| Cc1c(CCc2cccnc2)cc(C(=O)NCc2ccc(S(C)(=O)=O)cc2)c(=O)n1-c1cccc(C(F)(F)F)c1 [Example 8, 6-Methyl-N-[4-(methylsulfonyl)benzyl]-2-oxo-5-(2-pyridin-3-ylethyl)-1-[3-(trifluoromethyl)phenyl]-1,2-dihydropyridine-3-carboxamide] | 83 |
| CCCN(C)C(=O)c1cc(C(=O)NCc2ccc(S(C)(=O)=O)cc2)c(=O)n(-c2cccc(C(F)(F)F)c2)c1C [Example 16, 6-Methyl-2-oxo-1-(3-trifluoromethyl-phenyl)-1,2-dihydro-pyridine-3,5-dicarboxylic acid 3-(4-methanesulfonyl-benzylamide)5-(methyl-propyl-amide)] | 48 |
| Cc1c(C(=O)N2CCC[C@@H]2CO)cc(C(=O)NCc2ccc(S(C)(=O)=O)cc2)c(=O)n1-c1cccc(C(F)(F)F)c1 [Example 19, 5-((2R)-2-Hydroxymethyl-pyrrolidine-1-carbonyl)-6-methyl-2-oxo-1-(3-trifluoromethyl-phenyl)-1,2-dihydro-pyridine-3-carboxylic acid 3-(4-methanesulfonyl-benzylamide)] | 99 |
